Publication PMC4046646 (Molecular psychiatry, 2013)

Tests used:
LeuT [1] = target: LeuT (Aquifex aeolicus, UniProt O67854, A289M, form not given); test: DEER spectroscopy; type: binding; conditions: 200 mM NaCl; 4-fold molar excess of Leu over LeuT
LeuT [2] = target: LeuT (Aquifex aeolicus, UniProt O67854); test: DEER spectroscopy; type: binding; conditions: 200 mM NaCl; 4-fold molar excess of Leu over LeuT

Q: Which results are given for `CC(C)C[C@H](N)C(=O)O` [Leu]?
A: DEER spectroscopy (Q-band, 83 K), ligand-induced conformational change (LeuT [1]): LeuT A289M with Na^+ and Leu bound in the vestibule has a destabilized bound structure; DEER spectroscopy (Q-band, 83 K), ligand-induced conformational change (LeuT [2]): Subsequent Leu binding resets the closed EL4 conformation in the occluded conformation of the transporter
